Results published in US6783949B1, “Processes for determining whether a test substance contains lipases or lipase inhibitors” (Aventis Pharma Deutschland GmbH, priority 1999, dated 2004).

Tests used:
Type in all cases: biochemical
[1] = target: T1, HSL (Rattus norvegicus, UniProt P15304); assay: PNPB assay; details: Example 6, Table 6; n=5, mean±SD
T1 construct: The partially purified HSL can be stored at −70° C. for 4 to 6 weeks; from tissue; host or cells: rat epididymal fat cells (male Wistar rats)
T1 sequence (P15304 1-768 isoform P15304-2): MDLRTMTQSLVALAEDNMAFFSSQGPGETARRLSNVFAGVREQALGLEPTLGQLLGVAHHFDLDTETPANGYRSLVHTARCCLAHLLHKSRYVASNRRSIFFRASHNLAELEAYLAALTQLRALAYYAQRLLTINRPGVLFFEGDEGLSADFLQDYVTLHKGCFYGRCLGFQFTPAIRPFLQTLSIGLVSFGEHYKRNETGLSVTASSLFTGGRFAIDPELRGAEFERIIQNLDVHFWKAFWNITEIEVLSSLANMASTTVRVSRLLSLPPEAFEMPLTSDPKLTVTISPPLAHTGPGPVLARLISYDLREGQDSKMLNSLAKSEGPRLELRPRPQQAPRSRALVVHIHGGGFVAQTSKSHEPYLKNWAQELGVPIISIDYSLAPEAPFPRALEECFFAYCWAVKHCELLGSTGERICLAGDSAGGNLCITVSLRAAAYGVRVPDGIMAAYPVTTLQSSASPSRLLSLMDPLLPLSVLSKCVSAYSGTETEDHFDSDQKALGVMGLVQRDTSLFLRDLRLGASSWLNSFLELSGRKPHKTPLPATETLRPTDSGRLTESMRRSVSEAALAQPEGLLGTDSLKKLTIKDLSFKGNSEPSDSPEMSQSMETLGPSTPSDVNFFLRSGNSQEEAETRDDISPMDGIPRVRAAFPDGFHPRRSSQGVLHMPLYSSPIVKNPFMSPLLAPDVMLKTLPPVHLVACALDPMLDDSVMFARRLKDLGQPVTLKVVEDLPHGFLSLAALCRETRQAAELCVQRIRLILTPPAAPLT
Description: Isolated rat fat cells are obtained from epididymal fatty tissue from untreated male rats (Wistar, 220-250 g) by collagenase treatment according to published processes. The fat cells from 10 rats are washed three times by flotation with 50 ml each of homogenization buffer ([…], pH 7.4, 0.25 M sucrose, 1 mM ethylenediamine-N,N,N′,N′-tetraacetic acid (EDTA), 1 mM dithiothreitol (DTT), 10 μg/ml of leupeptin, 10 μg/ml of antipain, 20 μg/ml of pepstatin) and finally taken up in 10 ml of homogenization buffer. The fat cells are homogenized in a Teflon-in-glass homogenizer (Braun-Melsungen) by 10 strokes at 1500 rpm and 15° C. The homogenizate is centrifuged (Sorvall SM24 tubes, 5000 rpm, 10 min, 4° C.). […]
10 μl of p-nitrophenyl butyrate (PNPB)(2 mM in acetonitrile), 890 μl of 0.1 M KPi (pH 7.25), 0.9% NaCl, 1 mM DTT, and 100 μl of HSL (prepared as above, diluted in this buffer) are incubated at 37° C. for 10 min. […] An equivalent volume of the upper phase is then taken and the absorption is determined at 400 nm.
Substances are customarily tested in four independent batches. The inhibition of the enzymatic activity of the HSL by a test substance is determined by comparison with an uninhibited control reaction. The IC50 value is calculated by means of an inhibition curve using at least 10 concentrations of the test substance. […]

[2] = system: bacterial lipase; assay: Cleavage of NAG by bacterial lipase; details: for Increase in the absorption at 481 nm: Bacterial lipase, 60 min, NAG 0.05 mg/ml
[3] = system: PLA2 from snake venom; assay: Cleavage of NAG by PLA2; details: 60 min, NAG 0.05 mg/ml

O=C(CCCCCCCCCCCNc1ccc([N+](=O)[O-])c2nonc12)OCC(O)CO (racemic) [Compound 3]
IC50 [1]: > 100 µM

O=C(CCCCCCCCCCCNc1ccc([N+](=O)[O-])c2nonc12)OCC(O)CO (stereo not shown) [Compound (3)]
Increase in the absorption at 481 nm ([2]; enzyme 10 arb. units): 36 ± 7 arb. units | Increase in the absorption at 481 nm ([2]; enzyme 20 arb. units): 81 ± 10 arb. units | Increase in the absorption at 481 nm ([2]; enzyme 50 arb. units): 148 ± 18 arb. units | Increase in the absorption at 481 nm ([2]; enzyme 75 arb. units): 238 ± 29 arb. units | Increase in the absorption at 481 nm ([2]; enzyme 100 arb. units): 341 ± 39 arb. units | Increase in the absorption at 481 nm ([2]; enzyme 150 arb. units): 467 ± 57 arb. units | Increase in the absorption at 481 nm ([2]; enzyme 200 arb. units): 748 ± 70 arb. units | Increase in the absorption at 481 nm ([2]; enzyme 250 arb. units): 904 ± 83 arb. units | Increase in the absorption at 481 nm ([2]; enzyme 300 arb. units): 1056 ± 143 arb. units | Increase in the absorption at 481 nm ([2]; enzyme 400 arb. units): 1270 ± 187 arb. units | Activity relative to HSL ([2]; bacterial lipase, conditions optimized for HSL): 25% | Increase in the absorption at 481 nm ([3]; PLA2, enzyme 10 arb. units): 1 ± 1 arb. units | Increase in the absorption at 481 nm ([3]; PLA2, enzyme 20 arb. units): 3 ± 2 arb. units | Increase in the absorption at 481 nm ([3]; PLA2, enzyme 50 arb. units): 5 ± 1 arb. units | Increase in the absorption at 481 nm ([3]; PLA2, enzyme 75 arb. units): 8 ± 2 arb. units | Increase in the absorption at 481 nm ([3]; PLA2, enzyme 100 arb. units): 10 ± 2 arb. units | Increase in the absorption at 481 nm ([3]; PLA2, enzyme 150 arb. units): 26 ± 6 arb. units | Increase in the absorption at 481 nm ([3]; PLA2, enzyme 200 arb. units): 35 ± 9 arb. units | Increase in the absorption at 481 nm ([3]; PLA2, enzyme 250 arb. units): 46 ± 12 arb. units | Increase in the absorption at 481 nm ([3]; PLA2, enzyme 300 arb. units): 54 ± 9 arb. units | Increase in the absorption at 481 nm ([3]; PLA2, enzyme 400 arb. units): 75 ± 11 arb. units
